# From PMC9719519, “Non-classical ferroptosis inhibition by a small molecule targeting PHB2” (Nature Communications, 2022)
# Columns and labels:
# Assay in all cases: biochemical
# Design in all cases: Eurofins recombinant human kinase profiling, remaining kinase activity as % of control, 10 uM ATP
# Details in all cases: ATP 10 uM; read-out: %Ctrl@10 μM
# TRB2(h) = target: T1, TRB2(h) (Homo sapiens, UniProt Q92519)
# T1 construct: gene TRIB2
# Method in brief: (§1)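 Recombinant human kinases, 401 in total, screened using an outsourced kinase profiling assay.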
# LKB1(h) = target: T2, LKB1(h) (Homo sapiens, UniProt Q15831)
# T2 construct: gene STK11
# Method in brief: as §1
# JAK2(h) = JAK2(h) (Homo sapiens, UniProt O60674)
# Method in brief: as §1
# Aurora-B(h) = target: T3, Aurora-B(h) (Homo sapiens, UniProt Q96GD4)
# T3 construct: gene AURKB
# Method in brief: as §1
# HPK1(h) = target: T4, HPK1(h) (Homo sapiens, UniProt Q92918)
# T4 construct: gene MAP4K1
# Method in brief: as §1
# MOK(h) = MOK(h) (Homo sapiens, UniProt Q9UQ07)
# Method in brief: as §1
# Arg(h) = target: T5, Arg(h) (Homo sapiens, UniProt P42684)
# T5 construct: gene ABL2
# Method in brief: as §1
# EphA1(h) = EphA1(h) (Homo sapiens, UniProt P21709)
# Method in brief: as §1
# MARK4(h) = MARK4(h) (Homo sapiens, UniProt Q96L34)
# Method in brief: as §1
# mTOR/FKBP12(h) = mTOR/FKBP12(h) (Homo sapiens, UniProt P42345)
# Method in brief: as §1
# GCN2(h) = target: T6, GCN2(h) (Homo sapiens, UniProt Q9P2K8)
# T6 construct: gene EIF2AK4
# Method in brief: as §1
# IR(h), activated = target: T7, IR(h), activated (Homo sapiens, UniProt P06213)
# T7 construct: gene INSR
# Method in brief: as §1
# Aurora-C(h) = target: T8, Aurora-C(h) (Homo sapiens, UniProt Q9UQB9)
# T8 construct: gene AURKC
# Method in brief: as §1
# Ron(h) = target: T9, Ron(h) (Homo sapiens, UniProt Q04912)
# T9 construct: gene MST1R
# Method in brief: as §1
# Mnk2(h) = target: T10, Mnk2(h) (Homo sapiens, UniProt Q9HBH9)
# T10 construct: gene MKNK2
# Method in brief: as §1
# CDK7/cyclinH/MAT1(h) = CDK7/cyclinH/MAT1(h) (Homo sapiens, UniProt P50613)
# Method in brief: as §1
# Pim-3(h) = target: T11, Pim-3(h) (Homo sapiens, UniProt Q86V86)
# T11 construct: gene PIM3
# Method in brief: as §1
# MYO3B(h) = MYO3B(h) (Homo sapiens, UniProt Q8WXR4)
# Method in brief: as §1
# IKKα(h) = target: T12, IKKα(h) (Homo sapiens, UniProt O15111)
# T12 construct: gene CHUK
# Method in brief: as §1
# PKG1α(h) = target: T13, PKG1α(h) (Homo sapiens, UniProt Q13976)
# T13 construct: gene PRKG1; isoform 1alpha
# Method in brief: as §1
# ZIPK(h) = target: T14, ZIPK(h) (Homo sapiens, UniProt O43293)
# T14 construct: gene DAPK3
# Method in brief: as §1
# TAO2(h) = target: T15, TAO2(h) (Homo sapiens, UniProt Q9UL54)
# T15 construct: gene TAOK2
# Method in brief: as §1
# EphB3(h) = EphB3(h) (Homo sapiens, UniProt P54753)
# Method in brief: as §1
# T8 sequence (Q9UQB9 whole entry): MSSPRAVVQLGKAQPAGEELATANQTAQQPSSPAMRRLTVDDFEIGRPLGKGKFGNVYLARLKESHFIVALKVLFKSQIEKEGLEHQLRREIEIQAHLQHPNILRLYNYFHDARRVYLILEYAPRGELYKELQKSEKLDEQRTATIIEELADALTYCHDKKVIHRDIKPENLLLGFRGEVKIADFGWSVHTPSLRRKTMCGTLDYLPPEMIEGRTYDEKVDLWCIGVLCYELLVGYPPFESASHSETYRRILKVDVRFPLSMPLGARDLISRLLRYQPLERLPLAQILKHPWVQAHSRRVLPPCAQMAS
# T9 sequence (Q04912 whole entry): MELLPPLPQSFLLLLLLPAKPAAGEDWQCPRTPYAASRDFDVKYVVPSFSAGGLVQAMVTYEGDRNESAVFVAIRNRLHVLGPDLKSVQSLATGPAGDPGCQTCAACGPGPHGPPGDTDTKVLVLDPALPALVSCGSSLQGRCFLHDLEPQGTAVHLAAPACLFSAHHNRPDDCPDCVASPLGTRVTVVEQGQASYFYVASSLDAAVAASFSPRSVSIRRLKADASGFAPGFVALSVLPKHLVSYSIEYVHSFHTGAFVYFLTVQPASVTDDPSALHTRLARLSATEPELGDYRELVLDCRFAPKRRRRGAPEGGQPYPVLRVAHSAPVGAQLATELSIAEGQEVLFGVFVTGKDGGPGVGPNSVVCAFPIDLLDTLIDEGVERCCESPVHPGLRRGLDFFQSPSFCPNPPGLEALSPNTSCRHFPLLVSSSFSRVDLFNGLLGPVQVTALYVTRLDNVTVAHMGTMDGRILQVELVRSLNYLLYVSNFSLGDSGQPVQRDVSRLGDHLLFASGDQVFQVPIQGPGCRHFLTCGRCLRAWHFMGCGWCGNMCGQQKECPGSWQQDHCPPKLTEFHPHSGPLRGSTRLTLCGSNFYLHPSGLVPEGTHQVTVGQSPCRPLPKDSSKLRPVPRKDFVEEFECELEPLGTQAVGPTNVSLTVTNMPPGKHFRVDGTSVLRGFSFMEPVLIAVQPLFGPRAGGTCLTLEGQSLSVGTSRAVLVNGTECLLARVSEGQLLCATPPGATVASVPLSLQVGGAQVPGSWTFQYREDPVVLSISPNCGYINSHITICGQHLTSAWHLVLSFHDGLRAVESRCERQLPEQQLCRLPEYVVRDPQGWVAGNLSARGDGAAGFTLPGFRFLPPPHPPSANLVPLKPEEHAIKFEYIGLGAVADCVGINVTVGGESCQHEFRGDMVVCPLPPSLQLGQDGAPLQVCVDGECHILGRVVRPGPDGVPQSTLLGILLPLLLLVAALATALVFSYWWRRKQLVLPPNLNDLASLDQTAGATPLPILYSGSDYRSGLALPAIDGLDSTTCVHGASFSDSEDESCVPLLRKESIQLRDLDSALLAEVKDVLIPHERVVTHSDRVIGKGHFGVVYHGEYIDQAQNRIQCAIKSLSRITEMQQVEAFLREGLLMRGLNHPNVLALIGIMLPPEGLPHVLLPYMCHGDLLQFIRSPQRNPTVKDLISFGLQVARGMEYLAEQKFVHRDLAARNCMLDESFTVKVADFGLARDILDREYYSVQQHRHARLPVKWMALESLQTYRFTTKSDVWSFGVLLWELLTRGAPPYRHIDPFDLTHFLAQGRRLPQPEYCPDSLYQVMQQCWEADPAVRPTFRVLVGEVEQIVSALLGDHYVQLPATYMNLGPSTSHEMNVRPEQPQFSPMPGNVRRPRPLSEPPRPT
# Chain of MOK(h) (Q9UQ07 whole entry): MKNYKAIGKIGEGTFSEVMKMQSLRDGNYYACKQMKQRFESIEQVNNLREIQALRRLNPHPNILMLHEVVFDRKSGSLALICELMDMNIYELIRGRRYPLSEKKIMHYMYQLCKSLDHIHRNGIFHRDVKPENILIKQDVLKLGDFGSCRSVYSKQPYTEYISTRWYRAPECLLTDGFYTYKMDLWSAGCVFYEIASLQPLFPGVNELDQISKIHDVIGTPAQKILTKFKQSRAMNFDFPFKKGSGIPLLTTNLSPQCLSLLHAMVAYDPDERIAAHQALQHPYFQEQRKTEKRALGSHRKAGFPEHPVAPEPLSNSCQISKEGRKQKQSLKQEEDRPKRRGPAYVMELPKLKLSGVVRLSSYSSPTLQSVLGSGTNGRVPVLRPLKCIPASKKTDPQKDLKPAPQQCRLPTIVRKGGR
# Chain of MARK4(h) (Q96L34 whole entry): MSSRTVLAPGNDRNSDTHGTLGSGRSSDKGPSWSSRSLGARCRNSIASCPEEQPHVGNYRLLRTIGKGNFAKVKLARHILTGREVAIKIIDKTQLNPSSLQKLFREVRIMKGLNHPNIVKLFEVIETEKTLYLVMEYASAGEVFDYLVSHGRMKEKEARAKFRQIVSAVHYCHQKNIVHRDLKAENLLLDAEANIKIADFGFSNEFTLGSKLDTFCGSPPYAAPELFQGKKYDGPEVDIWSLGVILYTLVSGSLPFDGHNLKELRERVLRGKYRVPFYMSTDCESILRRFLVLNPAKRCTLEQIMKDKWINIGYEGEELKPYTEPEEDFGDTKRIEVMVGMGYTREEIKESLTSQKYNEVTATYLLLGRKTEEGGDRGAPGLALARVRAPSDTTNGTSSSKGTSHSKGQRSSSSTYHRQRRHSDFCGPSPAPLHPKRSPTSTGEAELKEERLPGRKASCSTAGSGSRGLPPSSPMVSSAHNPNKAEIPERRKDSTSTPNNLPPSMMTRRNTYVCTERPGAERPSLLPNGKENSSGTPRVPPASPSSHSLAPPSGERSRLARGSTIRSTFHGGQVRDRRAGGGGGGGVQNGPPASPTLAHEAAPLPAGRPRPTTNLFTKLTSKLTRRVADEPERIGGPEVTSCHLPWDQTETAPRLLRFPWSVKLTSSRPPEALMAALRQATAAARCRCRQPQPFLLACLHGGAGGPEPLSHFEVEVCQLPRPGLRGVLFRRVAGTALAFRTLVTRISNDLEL
# T12 sequence (O15111 whole entry): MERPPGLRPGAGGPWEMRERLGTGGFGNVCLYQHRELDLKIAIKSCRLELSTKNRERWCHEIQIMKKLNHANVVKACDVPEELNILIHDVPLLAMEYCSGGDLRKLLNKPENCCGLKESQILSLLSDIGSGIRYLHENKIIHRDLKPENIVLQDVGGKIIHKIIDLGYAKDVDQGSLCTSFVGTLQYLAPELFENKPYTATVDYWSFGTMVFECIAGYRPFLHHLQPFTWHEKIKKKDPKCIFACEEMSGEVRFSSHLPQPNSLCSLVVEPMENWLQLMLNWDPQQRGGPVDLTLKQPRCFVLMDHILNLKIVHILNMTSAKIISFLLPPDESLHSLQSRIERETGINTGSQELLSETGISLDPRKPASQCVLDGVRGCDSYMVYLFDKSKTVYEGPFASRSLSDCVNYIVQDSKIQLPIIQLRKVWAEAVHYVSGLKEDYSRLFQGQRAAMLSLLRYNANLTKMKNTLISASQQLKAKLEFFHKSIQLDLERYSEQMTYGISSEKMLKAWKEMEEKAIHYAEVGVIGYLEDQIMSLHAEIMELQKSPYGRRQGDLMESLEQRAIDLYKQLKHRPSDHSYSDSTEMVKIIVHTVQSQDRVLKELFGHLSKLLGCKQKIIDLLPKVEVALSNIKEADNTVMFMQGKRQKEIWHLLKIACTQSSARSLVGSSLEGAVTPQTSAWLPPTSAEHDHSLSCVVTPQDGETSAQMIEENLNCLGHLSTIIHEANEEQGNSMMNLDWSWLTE
# T1 sequence (Q92519 whole entry): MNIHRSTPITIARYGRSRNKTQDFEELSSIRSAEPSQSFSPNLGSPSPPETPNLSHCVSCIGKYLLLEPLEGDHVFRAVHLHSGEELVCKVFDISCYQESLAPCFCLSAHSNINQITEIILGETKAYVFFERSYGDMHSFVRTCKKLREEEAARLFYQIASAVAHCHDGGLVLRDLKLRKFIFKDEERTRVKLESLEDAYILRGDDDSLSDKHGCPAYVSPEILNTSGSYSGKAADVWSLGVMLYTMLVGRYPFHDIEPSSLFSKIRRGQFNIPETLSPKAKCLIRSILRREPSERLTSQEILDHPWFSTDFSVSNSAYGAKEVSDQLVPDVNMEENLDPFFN
# T13 sequence (Q13976 whole entry, canonical isoform): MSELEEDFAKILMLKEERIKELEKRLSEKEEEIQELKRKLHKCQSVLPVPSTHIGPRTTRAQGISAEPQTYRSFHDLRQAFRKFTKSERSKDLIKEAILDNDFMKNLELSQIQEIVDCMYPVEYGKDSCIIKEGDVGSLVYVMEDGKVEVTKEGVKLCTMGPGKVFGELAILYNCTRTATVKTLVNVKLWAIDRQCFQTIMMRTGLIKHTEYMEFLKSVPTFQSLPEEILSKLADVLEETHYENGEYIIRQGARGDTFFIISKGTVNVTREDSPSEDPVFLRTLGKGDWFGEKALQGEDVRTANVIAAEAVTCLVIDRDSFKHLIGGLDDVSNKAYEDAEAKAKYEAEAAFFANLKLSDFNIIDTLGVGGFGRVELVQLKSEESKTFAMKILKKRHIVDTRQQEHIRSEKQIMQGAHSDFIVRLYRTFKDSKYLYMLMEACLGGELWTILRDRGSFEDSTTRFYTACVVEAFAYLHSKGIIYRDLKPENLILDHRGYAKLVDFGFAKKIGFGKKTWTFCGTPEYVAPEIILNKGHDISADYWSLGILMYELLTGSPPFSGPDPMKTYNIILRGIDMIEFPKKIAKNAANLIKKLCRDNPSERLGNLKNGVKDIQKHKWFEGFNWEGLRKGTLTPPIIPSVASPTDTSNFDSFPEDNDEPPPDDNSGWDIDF
compound,measurement,setting,value
C1=C(c2nc(-c3cnn(C4CCNCC4)c3)cn3cc(-c4ccccc4)nc23)CCOC1 [YL-939],remaining activity at 10 µM,TRB2(h),59%
same,remaining activity at 10 µM,LKB1(h),87%
same,remaining activity at 10 µM,JAK2(h),90%
same,remaining activity at 10 µM,Aurora-B(h),89%
same,remaining activity at 10 µM,HPK1(h),88%
same,remaining activity at 10 µM,MOK(h),88%
same,remaining activity at 10 µM,Arg(h),108%
same,remaining activity at 10 µM,EphA1(h),109%
same,remaining activity at 10 µM,MARK4(h),111%
same,remaining activity at 10 µM,mTOR/FKBP12(h),88%
same,remaining activity at 10 µM,GCN2(h),67%
same,remaining activity at 10 µM,"IR(h), activated",91%
same,remaining activity at 10 µM,Aurora-C(h),101%
same,remaining activity at 10 µM,Ron(h),99%
same,remaining activity at 10 µM,Mnk2(h),74%
same,remaining activity at 10 µM,CDK7/cyclinH/MAT1(h),92%
same,remaining activity at 10 µM,Pim-3(h),103%
same,remaining activity at 10 µM,MYO3B(h),89%
same,remaining activity at 10 µM,IKKα(h),92%
same,remaining activity at 10 µM,PKG1α(h),90%
same,remaining activity at 10 µM,ZIPK(h),88%
same,remaining activity at 10 µM,TAO2(h),90%
same,remaining activity at 10 µM,EphB3(h),93%
